Assay results: patent EP1669365A1, “Method for preparing enzymatic substrate analogs as inhibitors of bacterial heptosyl-transferases” (priority 2004, dated 2006)

Target: T1, WaaC (Escherichia coli, UniProt P24173)
T1 construct: made in house; host or cells: E. coli BL21 double mutant with the heptosyltransferase I and II genes deleted
Experiment: WaaC IC50 fluorimetric in vitro heptosyltransferase assay (NADH fluorescence, pyruvate kinase/lactate dehydrogenase coupled)
Assay type: biochemical
Conditions: inhibitory activity on Waac enzymatic activity; 1nM purified WaaC, 3µM Re-LPS, pH 7.0
Description: A fluorimetric in vitro assay was set up to quantify the enzymatic activity of purified heptosyl transferase.Said fluorimetic assay is used to identify inhibitors and for measuring IC50 determinations.
WaaC IC50 assays are performed in black 96-well plates (Wallac) in a final volume of 100µL at pH 7.0 comprising: the inhibitor studied dissolved in 2µL DMSO at 10 different concentrations, 50mM HEPES, 10mM MgCl2, 50mM KCl, 0.1% Triton-), 3µM Re-LPS (Sigma, purified from Salmonella Minnesota), 1nM of purified WaaC, 5u/mL Pyruvate kinase (Sigma), 50µM Phosphoenolpyruvate (Sigma), 5u/mL Lactate dehydrogenase (Sigma) and 1.5µM NADH (Sigma). Fluorescence intensity of NADH (λex= 360nm, λem=520nm) is read once before enzyme addition (background), and is followed kinetically afterwards. Initial velocities are determined from the linear phase after background substraction. IC50 curves are fitted to a classical sigmoidal model with Hill slope.

T1 sequence (P24173 whole entry): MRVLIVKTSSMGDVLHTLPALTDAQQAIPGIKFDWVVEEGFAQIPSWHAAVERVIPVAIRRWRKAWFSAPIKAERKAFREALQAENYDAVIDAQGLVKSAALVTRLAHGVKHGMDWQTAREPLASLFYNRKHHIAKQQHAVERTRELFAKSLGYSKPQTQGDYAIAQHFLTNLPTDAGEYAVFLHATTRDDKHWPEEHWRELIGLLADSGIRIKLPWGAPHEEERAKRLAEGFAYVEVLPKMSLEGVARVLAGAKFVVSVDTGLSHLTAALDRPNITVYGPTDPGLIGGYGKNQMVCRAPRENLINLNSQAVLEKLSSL

Substance “Adenosine 5'-diphospho-2-Deoxy-2-fluoro-6-L-glycero-β-D-heptoglucopyranoside” has an IC50 of 57 µM.
